Activity calls are given as the source filed them. No rule for the calls is given here.

Chain of Sphingosine 1-phosphate receptor 3 (Homo sapiens) (Q99500 whole entry, looked up): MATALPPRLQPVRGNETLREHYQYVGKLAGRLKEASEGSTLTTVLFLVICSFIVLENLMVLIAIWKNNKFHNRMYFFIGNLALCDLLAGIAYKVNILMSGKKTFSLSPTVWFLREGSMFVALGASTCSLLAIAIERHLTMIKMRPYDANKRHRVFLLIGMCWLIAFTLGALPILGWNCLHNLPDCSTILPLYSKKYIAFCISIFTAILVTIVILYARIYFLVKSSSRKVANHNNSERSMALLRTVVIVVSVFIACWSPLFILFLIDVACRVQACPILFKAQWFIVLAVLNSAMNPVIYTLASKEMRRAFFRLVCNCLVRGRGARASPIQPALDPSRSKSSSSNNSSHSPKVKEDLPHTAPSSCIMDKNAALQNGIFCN

The test has as its target Sphingosine 1-phosphate receptor 3 (Homo sapiens) (UniProt Q99500). Put plainly: S1P3 receptor agonist activity, late-stage follow-up, counter-screen for S1PR3 antagonist project, cell-based, fluorescence, dose response (AID 743424). To be noted: S1P3-expressing cells, agonist-mode fluorescence counterscreen.
As to `O=C(NC(c1ccc(Cl)cc1)c1nc(-c2ccccc2)no1)c1ccc(Cl)c(Br)c1` (configuration not stated), the EC50 is > 50 µM (inactive).
With `O=C(NC(c1nc(-c2ccccc2)no1)C1CCCCC1)c1ccc(Cl)c(Cl)c1` (configuration not stated) the figure was > 50 µM (inactive).
On to `O=C(NC(c1cccc(Cl)c1)c1nc(-c2ccccc2)no1)c1cccc(Cl)c1` (configuration not stated), for which the EC50 is > 50 µM (inactive).
Then `O=C(NC(c1ccccc1)c1nc(-c2ccccc2)no1)c1cccc(Cl)c1` (configuration not stated), with > 50 µM (inactive).
Then `O=C(NC(c1ccc(Cl)c(Cl)c1)c1nc(-c2ccccc2)no1)c1ccc(Cl)cc1` (configuration not stated), with > 50 µM (inactive); and `O=C(NC(c1ccc(Br)cc1)c1nc(-c2ccccc2)no1)c1ccc(Cl)c(Cl)c1` (configuration not stated), with > 50 µM (inactive); and `O=C(NC(c1cccc(Cl)c1)c1nc(-c2ccccc2)no1)c1ccc(Cl)c(Cl)c1` (configuration not stated), with > 50 µM (inactive).
With `O=C(c1cccc(Cl)c1)N(CCO)C(c1ccc(Cl)c(Cl)c1)c1nc(-c2ccccc2)no1` (configuration not stated) the figure was > 50 µM (inactive); with `O=C(NC(c1ccc(Cl)cc1)c1nc(-c2cccc(Cl)c2)no1)c1cccc(Cl)c1` (configuration not stated), > 50 µM (inactive); with `O=C(NC(c1ccc(Cl)c(Cl)c1)c1nc(-c2ccccc2)no1)c1ccc(Cl)c(Cl)c1` (configuration not stated), > 50 µM (inactive).
As for `O=C(NC(c1ccc(Cl)cc1)c1nc(-c2ccccc2)no1)c1cccc(Cl)c1` (configuration not stated), the EC50 was > 50 µM (inactive).
For the compound `CCc1ccc(C(NC(=O)c2cccc(Cl)c2)c2nc(-c3ccccc3)no2)cc1` (configuration not stated), the EC50 was > 50 µM (inactive).
Turning to `O=C(NC(Cc1ccccc1)c1nc(-c2ccccc2)no1)c1cccc(Cl)c1` (configuration not stated), the EC50 is > 50 µM (inactive).
In the case of `O=C(NC(c1ccc(Cl)c(Cl)c1)c1nc(-c2ccccc2)no1)c1ccccc1` (configuration not stated), the EC50 is > 50 µM (inactive).
`O=C(NC(c1ccc(Cl)cc1)c1nc(-c2ccccc2)no1)c1ccc(Cl)c(Cl)c1` (configuration not stated): the EC50 is > 50 µM (inactive).
Consider `N#Cc1ccc(C(=O)NC(c2ccc(Cl)c(Cl)c2)c2nc(-c3ccccc3)no2)cc1` (configuration not stated), for which the EC50 is > 50 µM (inactive).
With `O=C(NC(c1cccc(Cl)c1)c1nc(-c2ccccc2)no1)c1cc(Cl)cc(Cl)c1` (configuration not stated) the figure was > 50 µM (inactive).
As to `O=C(NC(c1nc(-c2ccccc2)no1)C1CCOCC1)c1ccc(Cl)c(Cl)c1` (configuration not stated), the EC50 was > 50 µM (inactive).
Then `O=C(NC(c1ccc(Cl)cc1)c1nc(-c2ccccn2)no1)c1cccc(Cl)c1` (configuration not stated), with > 50 µM (inactive); and `Cc1ccc(C(=O)NC(c2ccccc2)c2nc(-c3ccccc3)no2)cc1` (configuration not stated), with > 50 µM (inactive); and `O=C(NC(c1ccccc1)c1nc(-c2ccccc2)no1)c1cccc(Br)c1` (configuration not stated), with > 50 µM (inactive).
With `COc1ccc(C(=O)NC(c2ccccc2)c2nc(-c3ccccc3)no2)cc1` (configuration not stated) the figure was > 50 µM (inactive).
Consider `O=C(NC(c1ccccc1)c1nc(-c2ccccc2)no1)c1cccc(Cl)n1` (configuration not stated), for which the EC50 entry is “inactive”.
Then `O=C(NC(c1ccc(Cl)cc1)c1nc(-c2ccccc2)no1)c1cccc(Br)c1` (configuration not stated), with > 50 µM (inactive); and `Cc1ccc(C(NC(=O)c2cccc(Cl)c2)c2nc(-c3ccccc3)no2)cc1` (configuration not stated), with > 50 µM (inactive).
Regarding `O=C(NC(c1ccc(Cl)c(Cl)c1)c1nc(-c2ccccc2)no1)c1cccc(Cl)c1` (configuration not stated), the EC50 was > 50 µM (inactive).
Then `O=C(NC(c1ccccc1)c1nc(-c2ccccc2)no1)c1ccc(Cl)cc1` (configuration not stated), with > 50 µM (inactive).

The values above are taken from PubChem BioAssay AID743424 (The Scripps Research Institute Molecular Screening Center, 2014).
